Holding throughout (format): cell-based
Assay [1] addresses T1, human TRESK (hTRESK) (Homo sapiens, UniProt Q7Z418).
T1 sequence (Q7Z418 1-384): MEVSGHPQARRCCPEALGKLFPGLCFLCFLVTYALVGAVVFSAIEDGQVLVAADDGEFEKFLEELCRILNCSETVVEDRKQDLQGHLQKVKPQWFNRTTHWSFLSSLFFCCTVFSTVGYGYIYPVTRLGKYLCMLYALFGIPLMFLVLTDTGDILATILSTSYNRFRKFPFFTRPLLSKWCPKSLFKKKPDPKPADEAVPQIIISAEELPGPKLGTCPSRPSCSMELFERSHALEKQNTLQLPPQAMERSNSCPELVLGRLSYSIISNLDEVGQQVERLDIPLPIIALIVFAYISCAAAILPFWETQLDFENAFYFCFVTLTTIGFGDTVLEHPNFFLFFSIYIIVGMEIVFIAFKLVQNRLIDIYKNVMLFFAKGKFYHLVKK
The assay is described as follows: whole-cell patch clamp in transfected HEK293 cells, single concentration […]. The settings on record: HEK293, read-out: % inhibition at 20 μM.

Another assay deals with T2, mouse TRESK (mTRESK) (Mus musculus, UniProt Q6VV64).
T2 sequence (Q6VV64 1-394): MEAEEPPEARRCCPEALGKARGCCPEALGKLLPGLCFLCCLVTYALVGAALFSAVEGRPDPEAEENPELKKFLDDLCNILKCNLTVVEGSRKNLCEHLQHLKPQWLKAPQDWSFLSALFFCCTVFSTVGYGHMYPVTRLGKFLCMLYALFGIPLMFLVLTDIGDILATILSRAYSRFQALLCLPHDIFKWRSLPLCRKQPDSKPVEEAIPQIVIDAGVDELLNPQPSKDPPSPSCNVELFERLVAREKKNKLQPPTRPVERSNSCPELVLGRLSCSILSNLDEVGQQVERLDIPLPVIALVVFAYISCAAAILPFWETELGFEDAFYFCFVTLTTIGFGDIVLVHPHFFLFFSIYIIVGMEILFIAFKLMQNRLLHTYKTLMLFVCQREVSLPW
The assay is described as follows: whole-cell patch clamp dose-response.

Assay [2] deals with T1, human TRESK (hTRESK). Briefly: whole-cell patch clamp in transfected HEK293 cells, dose-response.
The next assay deals with T3, rat TRESK (Rattus norvegicus, UniProt Q6Q1P3).
T3 sequence (Q6Q1P3 1-405): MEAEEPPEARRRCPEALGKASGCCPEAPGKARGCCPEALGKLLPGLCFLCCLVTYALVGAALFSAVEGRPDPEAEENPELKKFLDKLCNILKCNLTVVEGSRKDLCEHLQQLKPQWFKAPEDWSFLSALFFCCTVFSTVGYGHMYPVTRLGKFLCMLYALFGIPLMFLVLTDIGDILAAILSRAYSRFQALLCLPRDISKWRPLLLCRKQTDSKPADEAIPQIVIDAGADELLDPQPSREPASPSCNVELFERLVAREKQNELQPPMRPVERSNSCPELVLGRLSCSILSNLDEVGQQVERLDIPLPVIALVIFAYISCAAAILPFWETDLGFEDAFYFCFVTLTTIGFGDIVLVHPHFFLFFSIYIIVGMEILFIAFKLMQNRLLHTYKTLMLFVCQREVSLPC
Briefly: whole-cell patch clamp in transfected HEK293 cells, […].

A further assay deals with T4, human TREK-2 (hTREK-2) (Homo sapiens, UniProt P57789).
T4 sequence (P57789 1-538): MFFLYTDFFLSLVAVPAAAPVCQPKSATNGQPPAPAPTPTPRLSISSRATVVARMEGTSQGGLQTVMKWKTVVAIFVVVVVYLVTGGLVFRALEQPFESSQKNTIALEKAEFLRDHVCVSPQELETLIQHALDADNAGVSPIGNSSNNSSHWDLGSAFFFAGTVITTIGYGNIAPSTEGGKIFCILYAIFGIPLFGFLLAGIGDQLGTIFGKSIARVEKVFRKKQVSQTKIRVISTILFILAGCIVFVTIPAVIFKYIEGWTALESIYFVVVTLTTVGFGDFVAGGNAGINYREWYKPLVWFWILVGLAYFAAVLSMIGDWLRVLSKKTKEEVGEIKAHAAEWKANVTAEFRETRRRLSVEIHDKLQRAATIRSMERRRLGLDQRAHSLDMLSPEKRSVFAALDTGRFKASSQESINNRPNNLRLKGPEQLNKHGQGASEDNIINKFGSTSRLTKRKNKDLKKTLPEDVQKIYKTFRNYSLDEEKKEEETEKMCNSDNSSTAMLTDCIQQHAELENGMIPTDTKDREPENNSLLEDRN
The assay is described as follows: whole-cell patch clamp in transfected HEK293 cells, dose-response.

The target in a further assay is T5, mouse TRAAK (mTRAAK) (Mus musculus, UniProt O88454).
T5 sequence (O88454 1-398): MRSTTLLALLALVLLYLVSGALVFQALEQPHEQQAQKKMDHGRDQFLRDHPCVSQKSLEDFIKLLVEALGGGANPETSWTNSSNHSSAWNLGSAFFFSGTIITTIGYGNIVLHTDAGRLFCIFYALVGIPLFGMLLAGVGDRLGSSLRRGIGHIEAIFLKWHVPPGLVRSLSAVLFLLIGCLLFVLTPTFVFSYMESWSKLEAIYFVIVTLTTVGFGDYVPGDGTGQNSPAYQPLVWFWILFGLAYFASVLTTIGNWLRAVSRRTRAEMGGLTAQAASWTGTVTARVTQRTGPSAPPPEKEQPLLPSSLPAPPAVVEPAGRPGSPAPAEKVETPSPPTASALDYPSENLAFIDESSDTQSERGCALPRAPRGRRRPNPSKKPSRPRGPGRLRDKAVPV
Described as above.

SMILES strings stand for the structures.

Consider `CC1(C)[C@H](C(=O)O[C@H](C#N)c2cccc(Oc3ccccc3)c2)[C@@H]1C=C(Br)Br` [DM, deltamethrin], for which, on human TRESK (hTRESK) [1], the inhibition at 20 µM amounted to 30%.

Regarding `CC1(C)C(C=C(Cl)Cl)C1C(=O)OCc1cccc(Oc2ccccc2)c1` (stereo not shown) [PM, permethrin], on human TRESK (hTRESK) [1], the inhibition at 20 µM is 27%.

`CC(C)=CC1C(C(=O)OCN2C(=O)C3=C(CCCC3)C2=O)C1(C)C` (stereo not shown) [TM, Tetramethrin]: the IC50 turned out to be 34.9 µM at mouse TRESK (mTRESK), 10.7 µM against human TRESK (hTRESK) [2], 75.6 µM against human TREK-2 (hTREK-2) and 12.6 µM on mouse TRAAK (mTRAAK). Further, on rat TRESK, the “whole-cell patch clamp in transfected HEK293 cells, 20 μM” value is “TM was also tested on rat and mouse TRESK orthologs, with similar inhibitory effects”.

For the origin of these results see paper PMC5737456 (Pain, 2017).
